The source of these data is US10767160B2, “Methods for modulating production profiles of recombinant proteins” (ARES TRADING S.A., priority 2015, dated 2020).

Where two headings read alike, the source gives them in different places.

For data set [1], the system named is CHO-S cells expressing IgG1 mAb1. Description: Fed-batch culture in microplates, host cells expressing mAb1. In kind it is cell-based, Chinese Hamster. As to the method:
(§1) Assays were performed with 2 CHO cell lines: • CHO-S cells expressing IgG1 mAb1, herein “Cells mAb1” or “mAb1 cells”. “mAb1” is a fully human monoclonal antibody directed against a soluble protein. Its isoelectric point (pI) is about 8.20-8.30. • CHO-K1 cells expressing IgG1 mAb2, herein “Cells mAb2” or “mAb2 cells”. “mAb2” is a humanised monoclonal antibody directed against a receptor found on the cell membrane. Its isoelectric point (pI) is about 9.30. 2) Cell Expansion
(§2) Cells expressing mAb2 were inoculated at 0.2×10^6 cells per millilitre (mL), whereas cells expressing mAb1 were inoculated at 0.3×10^6 cells per mL.
(§3) All assays were performed in fed-batch culture. The host cells were cultured in fed-batch system either in microplates (“Deep well plate”) or in Spin Tubes®, and incubated at 36.5° C., 90% relative humidity, 5% CO2 and 320 rpm shaking during 14 days.
(§4) Viable cell density and viability were measured with the Guava easyCyte® flow cytometer or with the ViCell.
(§5) Antibody titres were measured with the fortêBIO Octet® or with Biacore C®.
(§6) Glycosylation profiles were established by capillary gel electrophoresis with laser-induced fluorescence (CGE-LIF). Dosages of aggregates and fragments were performed respectively via Size Exclusion High Performance Liquid Chromatography (SE-HPLC) and SDS-capillary gel electrophoresis.

Data set [2] has the same test system. The experiment in a line: Fed-batch culture in Spin Tubes, host cells expressing mAb1. In kind it is cell-based, Chinese Hamster. The procedure:
as §1, §2, §3, §4, §5, §6

Data set [3] relates to CHO-K1 cells expressing IgG1 mAb2. In kind it is cell-based, Chinese Hamster. The procedure: as §1, §2, §3, §4, §5, §6
Data set [4] has as its system recombinant CHO cells. The settings on record: batch culture, end of production run, after 8 days of culture; cited from earlier work.
In data set [5] the test system is recombinant CHO cells. The note with it: perfusion batch culture, within 6 days of treatment; cited from earlier work.
[6] abbreviates: about 167 μM or about 417 μM, microplates.
Setting [7] is: up to 25 μM and 41.7 μM, microplates.
The mark [8] stands for this setting: similar concentrations (8.5 μM), Spin tubes.
The mark [9] stands for this setting: about 0.4 μM to about 17 μM, microplates.
Where [10] appears, read: about 83 μM to about 833 μM, microplates.
The mark [11] stands for this setting: about 4.3 and/or about 8.5 μM, Spin Tubes.

What is called cell viability is the share of living cells, or the viability signal relative to a control. As for `Nc1c(S(=O)(=O)O)cc(Nc2ccc(Nc3nc(Cl)nc(Nc4ccccc4S(=O)(=O)O)n3)c(S(=O)(=O)O)c2)c2c1C(=O)c1ccccc1C2=O` [Cibacron Blue 3GA], in data set [1] (about 83 μM, microplates), the titre entry is listed as “still significantly increased”. Further, in data set [1] (setting [6]), the cell viability result is recorded as “decreased” and the titre result is “impact on the titre was observed”. For the same compound, the “quantity of secreted recombinant protein (titre) compared to control” value in data set [1] (about 8.3 to about 41.7 μM, microplates) amounted to 1.5 fold. In addition, in data set [1] (setting [7]), the titre result is recorded as “increased significantly” and the viable cell density result is “increased significantly”. Further, in data set [2] (8.5 μM, Spin tubes), the specific productivity result was “significantly increased” and the “titre increase at the end of the culture” value came out at 1.25 factor. For the same compound, the “maximum density of viable cells” value in data set [2] (8.5 μM, days 6-9, Spin tubes) is on record as “increased”. Moreover, in data set [2] (8.5 μM, starting on day 7, Spin tubes), the “viability compared to control” value is given as “decrease of viability”. In data set [3] (setting [8]), the “productivity of antibodies mAb2” value is listed as “increased” and the “titre multiplied at the end of cell culture” value is 1.2.

Turning to `O=S(=O)(O)c1cc(Nc2nc(Cl)nc(Nc3ccc(Nc4nc(Cl)nc(Nc5cc(S(=O)(=O)O)cc6cc(S(=O)(=O)O)c(N=Nc7ccccc7S(=O)(=O)O)c(O)c56)n4)cc3)n2)c2c(O)c(N=Nc3ccccc3S(=O)(=O)O)c(S(=O)(=O)O)cc2c1` [Reactive Red 120], in data set [1] (17.3 μM, day 7, microplates), the “viable cell density increase compared to control” value worked out at 1.5 factor. Moreover, the “titre increase compared to control” value in data set [1] (17.3 μM, day 14, microplates) came to 1.3 factor. Moreover, in data set [1] (83 μM, microplates), the “maximum titre relative to control cells” value was 1.2 fold. For the same compound, in data set [1] (setting [9]), the cell viability result was “(slightly) reduced”, the titre result is reported as “increased significantly” and the viable cell density result is given as “increased significantly”. Also, the toxicity limit result in data set [1] (about 17 μM, microplates) is listed as “did not seem to have been reached”. In addition, in data set [1] (setting [10]), the cell viability entry is reported as “decrease significantly”, the titre result is “remained superior or equal to what was obtained with control cells” and the viable cell density result is “decrease significantly”. For the same compound, in data set [1] (above 83 μM, microplates), the toxicity result is “becomes toxic”. This compound gave a titre increase in data set [2] (8.6 μM, Spin Tubes) of 1.2 factor. Also, the “cell viability compared to control” value in data set [2] (about 4.3 and/or about 8.5 μM, after day 10, Spin Tubes) is listed as “only slightly affected”. Moreover, in data set [2] (about 4.3 and/or about 8.5 μM, days 5-9, Spin Tubes), the viable cell density result was “increased”. For the same compound, in data set [3] (setting [11]), the specific productivity entry is “increase” and the titre result was “increase”. The “viability compared to control” value in data set [3] (until the end of the culture, Spin Tubes) is “maintained”.

Take `CCCC(=O)[O-].[Na+]` [sodium butyrate]: the figures for the cell viability entry with recombinant CHO cells [4] and in the data set with recombinant CHO cells [5] were “less than 45%” and 15%, respectively.
